The results in this text go back to ChEMBL document CHEMBL1134119, “Total synthesis of human chymase inhibitor methyllinderone and structure--activity relationships of its derivatives” (Bioorg Med Chem Lett, 2001).

Assay [1] addresses T1, Chymase (Homo sapiens, UniProt P23946).
T1 sequence (P23946 whole entry): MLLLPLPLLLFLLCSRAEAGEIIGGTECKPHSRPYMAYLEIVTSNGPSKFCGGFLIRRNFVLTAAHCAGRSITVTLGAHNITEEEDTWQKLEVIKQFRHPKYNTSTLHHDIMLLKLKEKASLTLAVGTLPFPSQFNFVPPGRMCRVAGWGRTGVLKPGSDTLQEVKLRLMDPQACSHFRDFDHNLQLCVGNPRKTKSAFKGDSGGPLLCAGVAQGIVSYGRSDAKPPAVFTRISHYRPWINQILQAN
Briefly: Compound was evaluated for its inhibitory activity against human Serine protease chymase.

The target of assay [2] is T1, Chymase. Kind of assay: Compound was evaluated for its inhibitory activity against human chymase.

For the compound `COC(CCc1ccccc1)=C1C(=O)C=CC1=O`, the IC50 against Chymase [1] came out at 40 µM.
On the same count and under the same terms, for `COC(/C=C/c1ccccc1)=C1C(=O)C(OC)=C(OC)C1=O` the value was 30 µM.
`COC(C)=C1C(=O)C=CC1=O` returned an IC50 at Chymase [2] above 1 mM.

By IC50 is commonly meant the concentration that gives 50% inhibition.
